The values that follow come from patent EP0162494A1, “Process for the preparation of a 3-hydroxy-2,3-dihydrobenzisothiazole 1,1-dioxide and the use of this compound as a biocide and for preparing an ortho-sulphobenzimide” (AKZO N.V., priority 1984, dated 1985).

Each structure is given as a SMILES string. In brackets after ≈: the same amount, converted by molar mass. Some results are limits rather than exact numbers.

One series relates to Pseudomonas aeruginosa. Nature of the series: MIC, modified DGHM dilution method. The following applies: A.C. = active compound. It counts as cell-based.
The next series has as its system Escherichia coli. Nature of the series: MIC, modified DGHM dilution method. It is filed as cell-based. The following applies: A.C. = active compound.
The test system of a further series is Proteus mirabilis. The series can be described thus: MIC, modified DGHM dilution method. The following applies: A.C. = active compound. It is filed as cell-based.
The next series concerns Staphylococcus aureus. Nature of the series: MIC, modified DGHM dilution method. It is filed as cell-based. Particulars: A.C. = active compound.
The subject of the next series is Streptococcus faecalis. Nature of the series: MIC, modified DGHM dilution method. It is filed as cell-based. Particulars: Enterococcus faecalis, A.C. = active compound.
The subject of a further series is Candida albicans. Nature of the series: MIC, modified DGHM dilution method. It is filed as cell-based. The following applies: A.C. = active compound.
Another series concerns Saccharomyces cerevisiae. The series can be described thus: MIC, modified DGHM dilution method. It is filed as cell-based. The following applies: A.C. = active compound.
A further series concerns Chaetomium globosum. The series can be described thus: MIC, modified DGHM dilution method. It counts as cell-based. Particulars: A.C. = active compound.
Another series concerns Paecillomyces varioti. The series can be described thus: MIC, modified DGHM dilution method. It is filed as cell-based. Particulars: A.C. = active compound.
The test system of another series is Trichoderma viride. The series can be described thus: MIC, modified DGHM dilution method. It is filed as cell-based. Particulars: A.C. = active compound.
The next series deals with Aspergillus niger. The series can be described thus: MIC, modified DGHM dilution method. It counts as cell-based. The following applies: A.C. = active compound.
In another series the test system is Pellicularia sasaki. The series can be described thus: MIC, modified DGHM dilution method. It counts as cell-based. Particulars: A.C. = active compound.
The next series has as its system Pyricularia oryzae. Nature of the series: microbe, parasite or virus in culture. It is filed as cell-based. Particulars: read-out: MIC-values.
In the next series the test system is fungi. The series can be described thus: MIC, DGHM dilution test method, by type of microorganism. It is filed as cell-based. The following applies: read-out: minimum growth inhibiting concentration (MIC value). On the procedure: (§1) The minimum growth inhibiting concentration (MIC value) of 3-hydroxy-2,3-dihydrobenzisothiazole-1,1-dioxide for the different types of microorganisms was determined in conformity with the dilution test method of the "Deutsche Gesellschaft fUr Hygiene und Mikrobiologie" (DGHM) and are: […]

The test system of the next series is gram negative bacteria. The description is as above. It counts as cell-based. The following applies: read-out: minimum growth inhibiting concentration (MIC value). On the procedure:
as §1

The subject of another series is gram positive bacteria. The series is described as above. It counts as cell-based. The following applies: read-out: minimum growth inhibiting concentration (MIC value). The protocol:
as §1

The test system of another series is yeasts. The description is as above. The following applies: read-out: minimum growth inhibiting concentration (MIC value). It counts as cell-based. The protocol: as §1
The nature of series [1]: Acute oral toxicity in rats. It is filed as in vivo. The following applies: for LD50 at 24 h / LD50 at 48 h / LD50 at 336 h: rat, in vivo, po; for LD50 at 24 h: after 24 hours; for LD50 at 48 h: after 48 hours; for LD50 at 336 h: after 14 days.
Series [2] concerns sulfphate reducing bacteria. Nature of the series: Bacteriostatic activity towards sulphate reducing bacteria. It is filed as cell-based. Particulars: result in words.
In the next series the test system is certain bacteria. Nature of the series: Synergy with quaternary ammonium compounds. Particulars: in combination with some quaternary ammonium compounds such as dimethylbenzyl coco-ammonium chloride or didecyldimethyl ammonium chloride. It is filed as cell-based.

With `COC1=NS(=O)(=O)c2ccccc21` [3-methoxy-1,2-benzisothiazole-1,1-dioxide, reference compound], the MIC in the series with Pseudomonas aeruginosa was over 1200 µg/mL; with Escherichia coli, 1200 µg/mL (≈ 6.08 mM); against Proteus mirabilis it was 600 to 1200 µg/mL (≈ 3.04 to 6.08 mM); against Staphylococcus aureus it was over 1200 µg/mL; with Streptococcus faecalis, over 1200 µg/mL; against Candida albicans it was over 1200 µg/mL. The MIC against Saccharomyces cerevisiae was over 1200 µg/mL; against Chaetomium globosum, over 1200 µg/mL; against Paecillomyces varioti, 600 to 1200 µg/mL (≈ 3.04 to 6.08 mM); in the series on Trichoderma viride it was over 1200 µg/mL; with Aspergillus niger, over 1200 µg/mL; with Pellicularia sasaki, 600 to 1200 µg/mL (≈ 3.04 to 6.08 mM). Moreover, in the series with Pyricularia oryzae, the MIC is over 1200 µg/mL.
On to `O=S1(=O)NC(O)c2ccccc21` (stereo not drawn) [3-hydroxy-2,3-dihydrobenzisothiazole-1,1-dioxide], for which the MIC with Pseudomonas aeruginosa was 1200 µg/mL (≈ 6.48 mM); against Escherichia coli, 600 to 1200 µg/mL (≈ 3.24 to 6.48 mM); against Proteus mirabilis, 600 to 1200 µg/mL (≈ 3.24 to 6.48 mM); in the series with Staphylococcus aureus, 600 to 1200 µg/mL (≈ 3.24 to 6.48 mM); in the series on Streptococcus faecalis, 600 to 1200 µg/mL (≈ 3.24 to 6.48 mM); with Candida albicans, 600 to 1200 µg/mL (≈ 3.24 to 6.48 mM). In addition, the MIC with Saccharomyces cerevisiae was 300 to 600 µg/mL (≈ 1.62 to 3.24 mM); with Chaetomium globosum, 37.5 to 75 µg/mL (≈ 0.202 to 0.405 mM); against Paecillomyces varioti, 18.8 to 37.5 µg/mL (≈ 0.102 to 0.202 mM); in the series with Trichoderma viride, 75 to 150 µg/mL (≈ 0.405 to 0.81 mM); with Aspergillus niger, 75 to 150 µg/mL (≈ 0.405 to 0.81 mM); in the series on Pellicularia sasaki it was 150 µg/mL (≈ 0.81 mM). In addition, the MIC with Pyricularia oryzae was in the range of 150 to 200 µg/mL (≈ 0.81 to 1.08 mM); in the series on fungi, 37.5 to 600 µg/mL (≈ 0.202 to 3.24 mM); in the series on gram negative bacteria, 600 to 2400 µg/mL (≈ 3.24 to 13 mM); with gram positive bacteria it was 600 to 1200 µg/mL (≈ 3.24 to 6.48 mM); in the series on yeasts, 300 to 1200 µg/mL (≈ 1.62 to 6.48 mM). The LD50 at 24 h in [1] (♀ rats) was found to be 860 mg/kg; in series [1] (♂ + ♀ rats), 1070 mg/kg; in series [1] (♂ rats), 1380 mg/kg. For the same compound, the values for the LD50 at 48 h in series [1] (♀ rats), in series [1] (♂ + ♀ rats) and in [1] (♂ rats) were 860 mg/kg, 1020 mg/kg and 1220 mg/kg, respectively. Also, the results for the LD50 at 336 h in series [1] (♀ rats), in [1] (♂ + ♀ rats) and in series [1] (♂ rats) were 860 mg/kg, 1020 mg/kg and 1220 mg/kg, respectively. In addition, the oral toxicity entry in series [1] (result in words) was “low oral toxicity”. For the same compound, in series [2], the bacteriostatic activity entry is recorded as “remarkable bacteriostatic activity”. Besides, the effect in combination entry with certain bacteria is “synergistic effect”.

As a reminder, the LD50 is the dose at which mortality reaches 50%.
